Laboratory results from patent US20240182443A1, “POLYMORPHIC FORMS OF COMPOUND AND PREPARATION METHOD THEREFOR AND APPLICATION THEREOF” (SHANGHAI MEIYUE BIOTECH DEVELOPMENT CO., LTD., priority 2021, published 2024).
Values after ≈ are worked out from the molar mass of the structure shown.

Assays:
Assay type in all cases: physicochemical
[1] = DVS (dynamic vapor sorption) hygroscopicity test with XRPD of the post-DVS sample; conditions: for hygroscopicity (DVS): within a range of 0-80% RH, 25° C.
Method: DVS tests were carried out using a dynamic vapor sorption instrument (Vsorp-Enhanced, proUmid) under the following conditions: adding a sufficient amount of a sample to the Vsorp-Enhanced instrument for simulation of dynamic vapor sorption, recording changes in weight at 25° C. with different humidity equilibrium levels, and subjecting the post-DVS test sample to an XRPD test.
The crystalline form III was characterized by XRPD, PLM, DSC, TGA and DVS. […] (FIG. 8). […] (FIG. 8). The DVS results (FIG. 9) show slight hygroscopicity at only 0.22% within a range of 0-80% RH.
The crystalline form VII was characterized by XRPD, PLM, DSC, TGA and DVS.

[2] = Solubility test in biological media (SGF, FaSSIF, FeSSIF) with XRPD of samples after the test; conditions: for solubility at 0.5 h / solubility at 24 h / solubility at 2 h: thermodynamic from solid
Method: (§1) The solubility of both the crystalline forms III and VII increased with decreasing pH value of the biological medium. Both the crystalline forms were most soluble in SGF (0.323 mg/mL VS 0.183 mg/mL @ 0.5 h) and least soluble in FaSSIF (0.034 mg/mL VS 0.025 mg/mL @ 0.5 h). […] Both the crystalline forms degraded to a certain extent as the stirring continued in the solubility test. The crystalline forms of the crystalline forms III and VII in all the three biological media changed. […] Thus, the compound is unstable in biological media (Table 13).

[3] = Solid stability and chemical stability of crystalline forms III and VII (60° C./sealed and 40° C./75% RH/open, 7 days; HPLC, XRPD); conditions: for chemical stability / crystalline form change (XRPD): 40° C./75% RH (open); for chemical stability / crystalline form change (XRPD) / physical and chemical stability / Purity-7 days (Area %): 7 days; for physical and chemical stability: 60° C. (sealed); for Purity-7 days (Area %) / Initial purity (Area %): HPLC; for Initial purity (Area %): before stability storage
Method: The crystalline forms III and VII were subjected to solid stability and chemical stability experiments under conditions of 60° C./sealed and 40° C./75% RH/open for 7 days. […] The amount of the crystalline form IV that formed in the crystalline form III is slightly greater than that in the crystalline form VII.

[4] = Test for effects of humidity on crystalline forms III and VII at 40° C. (XRPD); conditions: for physical stability (XRPD) / crystalline form change (XRPD): 40° C., 23 h; for physical stability (XRPD): 70% RH; for crystalline form change (XRPD): 80% and 90% RH; for physical stability: at 70% RH or less
Method: Therefore, they were further studied at 40° C. for the effects of humidity.

[5] = HPLC purity of the solubility test samples (stability in biological media); conditions: for HPLC (24 h): calculated as 100% HPLC purity before; for HPLC purity change: all three biological media, calculated as 100% HPLC purity before standing in the media
Method: as §1

[6] = Competitive slurrying experiment of crystalline forms I, III, VII and IX in butanone and isopropyl acetate; conditions: VII and IX slurried with butanone and isopropyl acetate
Method: A competitive slurrying experiment was carried out by slurrying a certain amount of each of the crystalline forms I, III, VII and IX with butanone and isopropyl acetate.

Row | hygroscopicity (DVS) [1] [%] | crystalline form after solubility test (XRPD) ([2]; FaSSIF) | pH ([2]; FaSSIF, 0.5 h) | Solubility ([2]; FaSSIF, 2 h) [mg/mL] | pH ([2]; FaSSIF, 2 h) | pH ([2]; FaSSIF, 24 h) | pH ([2]; FeSSIF, 0.5 h) | pH ([2]; FeSSIF, 2 h) | pH ([2]; FeSSIF, 24 h) | pH ([2]; SGF, 0.5 h) | pH ([2]; SGF, 2 h) | pH ([2]; SGF, 24 h) | chemical stability [3] | physical and chemical stability [3] | Purity-7 days (Area %) ([3]; 40° C./75% RH, open) | Purity-7 days (Area %) ([3]; 60° C., sealed) | Structure (SMILES) | crystalline form after the DVS test (XRPD) [1] | crystalline form after solubility test (XRPD) ([2]; FeSSIF) | crystalline form after solubility test (XRPD) ([2]; SGF) | crystalline form change (XRPD) [3] | other results
1 | 0.22 | transformed into the crystalline form IV | 6.47 | 0.009 (≈ 21.9 µM) | 6.47 | 6.45 | 4.88 | 4.92 | 4.94 | 1.09 | 1.07 | 1.24 | chemically stable | physically and chemically stable | 99.96 | 99.97 | COc1cc2nn([C@H]3CC[C@](C)(O)CC3)cc2cc1NC(=O)c1cccc(C)[n+]1[O-] [crystalline form III, 2-((2-(trans-4-hydroxy-cis-4-methylcyclohexyl)-6-methoxy-2H-indazol-5-yl)carbamoyl)-6-methylpyridine 1-oxide] | transformed into a crystal mixture of the crystalline forms III and IV | a crystal mixture of the crystalline forms IV and XIII | transformed into the crystalline form IV | a small amount of hydrate crystalline form IV formed | solubility at 0.5 h ([2]; FaSSIF, 0.5 h): 0.034 mg/mL (≈ 82.8 µM); solubility at 24 h ([2]; FaSSIF, 24 h): 0.007 mg/mL (≈ 17.1 µM); Solubility ([2]; FeSSIF, 0.5 h): 0.105 mg/mL (≈ 256 µM); Solubility ([2]; FeSSIF, 2 h): 0.067 mg/mL (≈ 163 µM); Solubility ([2]; FeSSIF, 24 h): 0.058 mg/mL (≈ 141 µM); Solubility ([2]; SGF, 2 h): 0.289 mg/mL (≈ 704 µM); Solubility ([2]; SGF, 24 h): 0.089 mg/mL (≈ 217 µM); solubility at 0.5 h ([2]; SGF, simulated gastric fluid, 0.5 h): 0.323 mg/mL (≈ 787 µM); solubility at 0.5 h relative to crystalline form VII ([2]; all three biological media, 0.5 h): 1.5 times; Initial purity (Area %) [3]: 99.96 Area %; physical stability (XRPD) [4]: physically stable; crystalline form change (XRPD) [4]: a small amount of hydrate crystalline form IV formed; physical stability [4]: physically stable; HPLC (24 h) ([5]; FaSSIF): 97.99%; HPLC (24 h) ([5]; FeSSIF): 96.89%; HPLC (24 h) ([5]; SGF): 99.69%; HPLC purity change [5]: decreased to a certain extent
2 | 0.29 | transformed into the crystalline form IV | 6.42 | 0.029 (≈ 70.7 µM) | 6.44 | 6.48 | 4.86 | 4.90 | 4.91 | 1.23 | 1.16 | 1.26 | chemically stable | physically and chemically stable | 99.93 | 99.94 | COc1cc2nn([C@H]3CC[C@](C)(O)CC3)cc2cc1NC(=O)c1cccc(C)[n+]1[O-] [crystalline form VII, 2-((2-(trans-4-hydroxy-cis-4-methylcyclohexyl)-6-methoxy-2H-indazol-5-yl)carbamoyl)-6-methylpyridine 1-oxide] | remained the same as that before the DVS test | transformed into the crystalline form IV | a crystal mixture of the crystalline forms IV and XV | a small amount of hydrate crystalline form IV formed | Solubility ([2]; FaSSIF, 0.5 h): 0.025 mg/mL (≈ 60.9 µM); Solubility ([2]; FaSSIF, 24 h): 0.007 mg/mL (≈ 17.1 µM); solubility at 0.5 h ([2]; FeSSIF, 0.5 h): 0.068 mg/mL (≈ 166 µM); solubility at 2 h ([2]; FeSSIF, 2 h): 0.065 mg/mL (≈ 158 µM); solubility at 24 h ([2]; FeSSIF, 24 h): 0.065 mg/mL (≈ 158 µM); Solubility ([2]; SGF, 0.5 h): 0.183 mg/mL (≈ 446 µM); solubility at 2 h ([2]; SGF, simulated gastric fluid, 2 h): 0.147 mg/mL (≈ 358 µM); solubility at 24 h ([2]; SGF, simulated gastric fluid, 24 h): 0.092 mg/mL (≈ 224 µM); Initial purity (Area %) [3]: 99.92 Area %; crystalline form resulting from competitive slurrying [6]: can be produced from various slurrying processes; physical stability (XRPD) [4]: physically stable; crystalline form change (XRPD) [4]: a small amount of hydrate crystalline form IV formed; physical stability [4]: physically stable; HPLC (24 h) ([5]; FaSSIF): 93.49%; HPLC (24 h) ([5]; FeSSIF): 93.13%; HPLC (24 h) ([5]; SGF): 99.46%; HPLC purity change [5]: decreased to a certain extent
